System: cultured buccal mucosa cells from ACM patients and gene carriers
Assay: Immunostaining of cultured buccal mucosa cells after incubation with SB216763
Type: cell-based, human
Design: dose or concentration left out as unconfirmed
Details: cultured buccal mucosa cells from ACM patients and unaffected gene carriers, confocal microscopy
Experimental: The oral cavity was first rinsed thoroughly with antiseptic mouthwash. Buccal mucosa cells were collected with a sterile toothbrush which was lightly scraped on the inside of both cheeks for ˜2 minutes. The oral cavity was washed with 15 ml of sterile saline which was collected in a centrifuge tube. The toothbrush itself was washed in an additional 10 ml of saline. The same process was repeated one or more times. The resultant cell suspension was centrifuged at 3000 g for 5 minutes. The pellet was washed once in sterile PBS, re-centrifuged and subsequently re-suspended in 20 ml of PBS supplemented with 5% penicillin/streptomycin and 7 mM fungizone for 30 minutes. The cells were then washed twice in PBS, reconstituted in KGM™-CD chemically defined keratinocyte growth medium (LONZA) and seeded on matrigel-coated chamber slides, where they were maintained at 37° C., 5% CO2 for up to 7 days. Selected cultures were incubated with SB216763 ([…]) for 24 hours prior to immunostaining. Buccal mucosa cultures were washed in PBS, fixed in 4% paraformaldehyde and, after being washed 3 additional times in PBS, were immunostained as described above with mouse monoclonal anti-plakoglobin (Sigma) or mouse monoclonal anti-Cx43 (Millipore) primary antibodies. All immunostained preparations were imaged at 40× using a ZEISS inverted confocal microscope.

## Cn1cc(C2=C(c3ccc(Cl)cc3Cl)C(=O)NC2=O)c2ccccc21 [SB216763]
  Cx43 signal distribution: normalized
  plakoglobin signal distribution: normalized

Reference: US10317417B2, “Buccal cell diagnosis of arrhythmogenic cardiomyopathy (ACM)” (Beth Israel Deaconess Medical Center, Inc., priority 2015, dated 2019)
